How the values were obtained:
GPR40 [1] = molecular target: T1, GPR40 (Homo sapiens, UniProt O14842); experiment: Cell-based aequorin assay (CHO cells stably expressing GPR40 and aequorin); set-up: expressed in transfected cells; host or cells: CHO cells stably transfected with GPR40 and aequorin; settings: activation of human GPR40, CHO cells, 0.01% HSA
Method in brief: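 CHO cells stably co-expressing GPR40 and aequorin, loaded with coelenterazine (1 ug/mL, 2 h, room temperature) in H/HBSS with 20 mM Hepes and 0.01% fatty acid-free HSA. Serially diluted compounds added; luminescence recorded over 20 s. EC50 from dose-response of maximum relative light units.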

GPR40 [2] = molecular target: T1, GPR40; experiment: Inositol phosphate accumulation assay (A9_GPR40 cells); assay type: cell-based; set-up: expressed in transfected cells; host or cells: CHO cells stably transfected with GPR40 and aequorin; settings: inositol phosphate assay, A9_GPR40 cells, 1 hour; read-out: IP3 EC50
Procedure: Briefly, the Aequorin assays were performed on doubly stable CHO cells expressing GPR40 and Aequorin DNA. […] The luminescence was recorded over a period of 20 seconds with a Microlumat luminometer (Berthold). […] The inositol phosphate assay was performed on an A9 cell line stably transfected with GPR40 (A9_GPR40). The cells were incubated with different concentrations of compounds and [^3H] inositol accumulation was measured after 1 hour.
An A9 cell line stably transfected with GPR40 (A9_GPR40) was used in IP accumulation assays. A9_GPR40 cells were plated in 96-well plates containing 20,000 cells/well in DMEM containing 10% FBS. After the cells attached to the well surface, the media was replaced with inositol free DMEM containing 10% dialyzed FBS and 1 μCi, mL ^3H-inositol and incubated for 16 hours. Compounds were diluted in HBSS/10 mM LiCl containing a desired amount of HSA and added directly to cells. Following 1 hour incubation at 37° C., the media was replaced with 100 μL of 20 mM formic acid to quench the reaction. 50 μL of the extract was then added to 100 μL of SPA beads, incubated overnight, and measured on a TopCount the following day.

T1 sequence (O14842 whole entry): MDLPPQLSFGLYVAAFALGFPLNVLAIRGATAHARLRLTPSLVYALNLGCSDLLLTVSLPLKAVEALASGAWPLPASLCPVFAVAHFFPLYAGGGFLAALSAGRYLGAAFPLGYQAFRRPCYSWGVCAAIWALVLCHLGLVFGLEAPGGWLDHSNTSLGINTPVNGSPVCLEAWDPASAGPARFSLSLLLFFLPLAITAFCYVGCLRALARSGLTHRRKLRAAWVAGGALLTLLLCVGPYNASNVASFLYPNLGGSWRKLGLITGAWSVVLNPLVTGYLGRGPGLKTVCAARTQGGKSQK

Row | EC50 (GPR40 [1]) | EC50 (GPR40 [2]) | Aequorin EC50 (GPR40 [1]) | SMILES
1 | 100 to 1000 nM | 10 to 100 nM | – | COc1ccc(F)c(-c2ccc(COc3cccc([C@@H](CC(=O)O)CC4CC4)c3)cc2C2=CC(C)(C)CC(C)(C)C2)c1 (single isomer, unassigned) [Example 69.31, (3R)-4-Cyclopropyl-3-(3-(((2′-fluoro-5′-(methyloxy)-2-(3,3,5,5-tetramethyl-1-cyclohexen-1-yl)-1,1′-biphenyl-4-yl)methyl)oxy)phenyl)butanoic acid or (3S)-4-cyclopropyl-3-(3-(((2′-fluoro-5′-(methyloxy)-2-(3,3,5,5-tetramethyl-1-cyclohexen-1-yl)-1,1′-biphenyl-4-yl)methyl)oxy)phenyl)butanoic acid]
2 | 100 to 1000 nM | 100 to 1000 nM | – | C=CC[C@H](CC(=O)O)c1cccc(OCc2ccc(-c3cccc(OC)c3)c(C(C)(C)C)c2)c1 (single isomer, unassigned) [Example 57, (3R)-3-(3-(((2-(1,1-dimethylethyl)-3′-(methyloxy)-1,1′-biphenyl-4-yl)methyl)oxy)phenyl)-5-hexenoic acid or (3S)-3-(3-(((2-(1,1-dimethylethyl)-3′-(methyloxy)-1,1′-biphenyl-4-yl)methyl)oxy)phenyl)-5-hexenoic acid]
3 | 10 to 100 nM | < 10 nM | – | COc1ccc(F)c(-c2ccc(COc3cccc(C(CC(=O)O)CC4CC4)c3)cc2C(OC)C(C)(C)C)c1 (single isomer, unassigned) [Example 69.35]
4 | 100 to 1000 nM | 10 to 100 nM | – | COc1ccc(F)c(-c2ccc(COc3cccc(C(CC(=O)O)CC4CC4)c3)cc2CC(C)C)c1 (single isomer, unassigned) [Example 69.21, (3R)-4-Cyclopropyl-3-(3-(((2′-fluoro-5′-(methyloxy)-2-(2-methylpropyl)-1,1′-biphenyl-4-yl)methyl)oxy)phenyl)butanoic acid or (3S)-4-cyclopropyl-3-(3-(((2′-fluoro-5′-(methyloxy)-2-(2-methylpropyl)-1,1′-biphenyl-4-yl)methyl)oxy)phenyl)butanoic acid]
5 | 100 to 1000 nM | < 10 nM | – | COc1ccc(F)c(-c2ccc(COc3cccc([C@@H](CC(=O)O)CC4CC4)c3)cc2C(C)C(C)C)c1 (single isomer, unassigned) [Example 69.12, (3R)-4-Cyclopropyl-3-(3-(((2-(1,2-dimethylpropyl)-2′-fluoro-5′-(methyloxy)-1,1′-biphenyl-4-yl)methyl)oxy)phenyl)butanoic acid or (3S)-4-cyclopropyl-3-(3-(((2-(1,2-dimethylpropyl)-2′-fluoro-5′-(methyloxy)-1,1′-biphenyl-4-yl)methyl)oxy)phenyl)butanoic acid]
6 | 100 to 1000 nM | 10 to 100 nM | – | COc1ccc(F)c(-c2ccc(COc3cccc([C@@H](CC(=O)O)C4CC4)c3)cc2C2N(C)CCCC2(C)C)c1 (single isomer, unassigned) [Example 66.40, (S)-3-Cyclopropyl-3-{3-[2′-fluoro-5′-methoxy-2-(1,3,3-trimethyl-piperidin-2-yl)-biphenyl-4-ylmethoxy]-phenyl}-propionic acid or (R)-3-cyclopropyl-3-{3-[2′-fluoro-5′-methoxy-2-(1,3,3-trimethyl-piperidin-2-yl)-biphenyl-4-ylmethoxy]-phenyl}-propionic acid]
7 | 10 to 100 nM | < 10 nM | – | COc1cccc(-c2ccc(COc3cccc(C(CC(=O)O)CC4CC4)c3)cc2C2CCCC2(C)C)c1 (single isomer, unassigned) [Example 69.10]
8 | 100 to 1000 nM | 10 to 100 nM | – | COc1ccc(F)c(-c2ccc(COc3cccc([C@@H](CC(=O)O)CC4CC4)c3)cc2C2CC(C)(C)CC(C)(C)C2)c1 (single isomer, unassigned) [Example 69.32, (3R)-4-Cyclopropyl-3-(3-(((2′-fluoro-5′-(methyloxy)-2-(3,3,5,5-tetramethylcyclohexyl)-1,1′-biphenyl-4-yl)methyl)oxy)phenyl)butanoic acid or (3S)-4-cyclopropyl-3-(3-(((2′-fluoro-5′-(methyloxy)-2-(3,3,5,5-tetramethylcyclohexyl)-1,1′-biphenyl-4-yl)methyl)oxy)phenyl)butanoic acid]
9 | 100 to 1000 nM | < 10 nM | – | COc1ccc(F)c(-c2cc(F)c(COc3cccc([C@@H](CC(=O)O)C4CC4)c3)cc2C2=CCCC2(C)C)c1 (single isomer, unassigned) [Example 66.43, (3S)-3-Cyclopropyl-3-(3-(((2-(5,5-dimethyl-1-cyclopenten-1-yl)-2′,5-difluoro-5′-(methyloxy)-1,1′-biphenyl-4-yl)methyl)oxy)phenyl)propanoic acid or (3R)-3-cyclopropyl-3-(3-(((2-(5,5-dimethyl-1-cyclopenten-1-yl)-2′,5-difluoro-5′-(methyloxy)-1,1′-biphenyl-4-yl)methyl)oxy)phenyl)propanoic acid]
10 | 100 to 1000 nM | 10 to 100 nM | – | CCCC(CC(=O)O)c1cccc(OCc2ccc(-c3cccc(OC)c3)c(C3=CCCC3(C)C)c2)c1 (single isomer, unassigned) [Example 67.12, (3R)-3-(3-(((2-(5,5-Dimethyl-1-cyclopenten-1-yl)-3′-(methyloxy)-1,1′-biphenyl-4-yl)methyl)oxy)phenyl)hexanoic acid or (3S)-3-(3-(((2-(5,5-dimethyl-1-cyclopenten-1-yl)-3′-(methyloxy)-1,1′-biphenyl-4-yl)methyl)oxy)phenyl)hexanoic acid]
11 | – | < 10 nM | +++/ ++++ | COc1cccc(-c2ccc(COc3cccc(C(CC(=O)O)C4CC4)c3)cc2C2=CCCC2(C)C)c1 (single isomer, unassigned) [Example 66.3, (3S)-3-Cyclopropyl-3-(3-(((2-(5,5-dimethyl-1-cyclopenten-1-yl)-3′-(methyloxy)-1,1′-biphenyl-4-yl)methyl)oxy)phenyl)propanoic acid or (3R)-3-cyclopropyl-3-(3-(((2-(5,5-dimethyl-1-cyclopenten-1-yl)-3′-(methyloxy)-1,1′-biphenyl-4-yl)methyl)oxy)phenyl)propanoic acid]
12 | 100 to 1000 nM | 100 to 1000 nM | – | COc1ccc(F)c(-c2ccc(COc3cccc(C(C)(C)CC(=O)O)c3)cc2C(C)(C)C)c1 [Example 85.1, 3-[3-(2-tert-Butyl-2′-fluoro-5′-methoxy-biphenyl-4-ylmethoxy)-phenyl]-3-methyl-butyric acid]
13 | 100 to 1000 nM | 10 to 100 nM | – | COc1ccc(F)c(-c2ccc(COc3cccc(C(C)CC(=O)O)c3)cc2C2CCCCCC2)c1 (single isomer, unassigned) [Example 64.17, (3R)-3-(3-(((2-Cycloheptyl-2′-fluoro-5′-(methyloxy)-1,1′-biphenyl-4-yl)methyl)oxy)phenyl)butanoic acid or (3S)-3-(3-(((2-cycloheptyl-2′-fluoro-5′-(methyloxy)-1,1′-biphenyl-4-yl)methyl)oxy)phenyl)butanoic acid]
14 | 10 to 100 nM | < 10 nM | – | CCC(C)(C)[C@H](OC)c1cc(COc2cccc([C@@H](CC(=O)O)C3CC3)c2)ccc1-c1cc(OC)ccc1F (single isomer, unassigned) [Example 66.62]
15 | 100 to 1000 nM | 10 to 100 nM | – | CCC(CC(=O)O)c1cc(F)cc(OCc2ccc(-c3cc(OC)ccc3F)c(C3=CCCC3(C)C)c2)c1F (single isomer, unassigned) [Example 90.1, (3R)-3-(3-(((2-(5,5-Dimethyl-1-cyclopenten-1-yl)-2′-fluoro-5′-(methyloxy)-1,1′-biphenyl-4-yl)methyl)oxy)-2,5-difluorophenyl)pentanoic acid or (3S)-3-(3-(((2-(5,5-dimethyl-1-cyclopenten-1-yl)-2′-fluoro-5′-(methyloxy)-1,1′-biphenyl-4-yl)methyl)oxy)-2,5-difluorophenyl)pentanoic acid]
16 | 10 to 100 nM | < 10 nM | – | COc1cc(-c2ccc(COc3cccc([C@@H](CC(=O)O)C4CC4)c3F)cc2[C@@H](OC)C(C)(C)C)c(F)cn1 (single isomer, unassigned) [Example 83.21]
17 | 100 to 1000 nM | < 10 nM | – | CCC(CC(=O)O)c1cccc(OCc2cc(C3CCCC3(C)C)c(-c3cc(OC)ccc3F)cc2F)c1F (single isomer, unassigned) [Example 77.6]
18 | 1000 to 10000 nM | 100 to 1000 nM | – | COc1ccc(F)c(-c2ccc(COc3cccc(C(CC(=O)O)C4CC4)c3F)cc2CN2CCCCCC2)c1 (single isomer, unassigned) [Example 83.29, (3S)-3-(3-(((2-(1-Azepanylmethyl)-2′-fluoro-5′-(methyloxy)-1,1′-biphenyl-4-yl)methyl)oxy)-2-fluorophenyl)-3-cyclopropylpropanoic acid or (3R)-3-(3-(((2-(1-Azepanylmethyl)-2′-fluoro-5′-(methyloxy)-1,1′-biphenyl-4-yl)methyl)oxy)-2-fluorophenyl)-3-cyclopropylpropanoic acid]

Source: US8030354B2, “Substituted biphenyl GPR40 modulators” (Amgen Inc., priority 2007, dated 2011)
